Test results taken from ChEMBL document CHEMBL4000152, “Synthesis and Antimalarial Activity of Mallatojaponin C and Related Compounds” (J Nat Prod, 2016).

Test system: Plasmodium falciparum
Assay: Antiplasmodial activity against Plasmodium falciparum FcB1/Columbia infected in human erythrocytes assessed as parasite growth inhibition after 24 hrs by [3H]-hypoxanthine incorporation assay
Type: functional, cell-based
Settings: not given

**Q.** Which IC50 does the source give for `COc1cc(O)c(C(C)=O)c(O)c1CC=C(C)C` here?
**A.** 7.4 µM

**Q.** With `COc1cc(O)c(C(C)=O)c(O)c1C/C=C(\C)CCC=C(C)C` as the compound, how does the IC50 read?
**A.** 4.4 µM

**Q.** With `COc1c(C/C=C(\C)CCC=C(C)C)c(O)c(C(C)=O)c(O)c1Cc1c(O)c(C(C)=O)c(O)c(C/C=C(\C)CCC=C(C)C)c1OC` as the compound, how does the IC50 read?
**A.** 6 µM

**Q.** Which IC50 does the source give for `COc1c(CC=C(C)C)c(O)c(C(C)=O)c(O)c1Cc1c(O)c(C(C)=O)c(O)c(CC=C(C)C)c1OC` [MALLOTOJAPONIN C] here?
**A.** 0.75 µM

**Q.** Which IC50 does the source give for `COc1cc(O)c(C(C)=O)c(O)c1Cc1c(OC)cc(O)c(C(C)=O)c1O` here?
**A.** 17.6 µM

Test system: not listed separately
Assay: Stability of the compound under freezing condition
Type: physicochemical
Settings: not given

**Q.** With `CC(=O)c1c(O)c(CC=C(C)C)c(O)c(C(c2ccc(F)cc2)c2c(O)cc(O)c(CC=C(C)C)c2O)c1O` (centres undefined) as the compound, how does the Stability read?
**A.** Unstable

Test system: Plasmodium falciparum
Assay: Antiplasmodial activity against intraerythrocytic stage of Plasmodium falciparum Dd2 assessed as parasite growth inhibition after 72 hrs by SYBR Green I dye-based assay
Type: functional
Settings: Dd2, 72 h

**Q.** With `COc1cc(O)c(C(C)=O)c(O)c1C/C=C(/C)CC/C=C(/C)CCC=C(C)C` as the compound, how does the IC50 read?
**A.** 0.56 µM

**Q.** With `COc1cc(O)c(C(C)=O)c(O)c1CC=C(C)C` as the compound, how does the IC50 read?
**A.** 1.7 µM

**Q.** With `COc1c(CCC(C)(C)O)c(O)c(C(C)=O)c(O)c1Cc1c(O)c(C(C)=O)c(O)c(CCC(C)(C)O)c1OC` as the compound, how does the IC50 read?
**A.** > 10 µM

**Q.** Which IC50 does the source give for `COc1cc(O)c(C(C)=O)c(O)c1C/C=C(\C)CCC=C(C)C` here?
**A.** 0.57 µM

**Q.** Which IC50 does the source give for `COc1cc(O)c(C(C)=O)c(O)c1` here?
**A.** > 20 µM

**Q.** For `CC(=O)c1c(O)cc(O)cc1O` [2,4,6-TRIHYDROXYACETOPHENONE], which IC50 is on record?
**A.** > 20 µM

**Q.** With `COc1c(C/C=C(\C)CCC=C(C)C)c(O)c(C(C)=O)c(O)c1Cc1c(O)c(C(C)=O)c(O)c(C/C=C(\C)CCC=C(C)C)c1OC` as the compound, how does the IC50 read?
**A.** 1.7 µM

**Q.** For `CC(=O)c1c(O)cc(O)c(CC=C(C)C)c1O`, which IC50 is on record?
**A.** > 20 µM

**Q.** Which IC50 does the source give for `CC(=O)c1c(O)cc(O)c(C/C=C(/C)CC/C=C(/C)CCC=C(C)C)c1O` here?
**A.** 3.6 µM

**Q.** With `CC(=O)c1c(O)c(CC=C(C)C)c(O)c(C(c2ccc(F)cc2)c2c(O)cc(O)c(CC=C(C)C)c2O)c1O` (centres undefined) as the compound, how does the IC50 read?
**A.** 2 to 4 µM

**Q.** For `COc1cc(O)c(C(C)=O)c(O)c1Cc1c(OC)cc(O)c(C(C)=O)c1O`, which IC50 is on record?
**A.** 8.1 µM

**Q.** With `COc1cc(O)c(C(C)=O)c(O)c1CCC(C)(C)O` as the compound, how does the IC50 read?
**A.** > 20 µM

**Q.** For `CC(=O)c1c(O)cc(O)c(C/C=C(\C)CCC=C(C)C)c1O`, which IC50 is on record?
**A.** 6.6 µM
